Article PMC10352257, “In vivo effects of the alpha-synuclein misfolding inhibitor minzasolmin supports clinical development in Parkinson’s disease” (NPJ Parkinson's Disease, 2023)
Entries after “also recorded” stand apart in the source; their conditions may differ. Like-named read-outs stand apart in the source and are kept apart here.

Legend:
[1] = tested on: total ASYN; test: Immunohistochemical evaluation of total ASYN in brain sections, 3-month study; format: in vivo, mouse; settings: for change in total ASYN immunolabeling vs vehicle-treated Line 61 transgenic mice: hippocampus and striatum (P < 0.0001); for total ASYN immunolabeling, mean: Line 61 tg, 3 months
Description: (§1) A transgenic mouse model of Parkinson’s disease overexpressing human wild-type ASYN under the murine Thy-1 promoter on a mixed C57Bl/6 background was used in the present studies (commonly referred to Line 61)[49]. The Line 61 transgenic mouse model of Parkinson’s disease develops extensive accumulation of ASYN in areas relevant to Parkinson’s disease[49]–[51], neurodegeneration (as evidenced by loss of tyrosine hydroxylase[52],[53] and dopamine transporter immunoreactivity[18] in the striatum), inflammation, and both motor and non-motor functional deficits. Multiple cohorts of mice were transferred from the University of California, San Diego to a Neuropore-funded AAALAC-accredited vivarium facility per a laboratory service agreement between Neuropore Therapies, Inc. and the laboratory of Dr. Eliezer Masliah under institutional animal care and use committee (IACUC) Protocol S02221. All in vivo testing was conducted by Neuropore personnel under Explora Biosciences animal care and use protocol (ACUP) number E15-016-2. Three-month-old male transgenic and age-matched non-transgenic littermate control mice were used and housed up to 5 per cage. Animals received free access to food and water prior to the experiment. The vivarium ambient room temperature was monitored daily and kept within a range of 68–72 degrees Fahrenheit. Animals were kept on a 12:12 diurnal light cycle, with lights on at 0600.
(§2) Minzasolmin was dissolved in a vehicle solution consisting of 40% Captisol (CyDex Pharmaceuticals, Inc.; Kansas, USA) in sterile water and administered at a volume of 0.1 ml/20 g of body weight. Animals received a Monday–Friday daily intraperitoneal injection of vehicle, or 1 or 5 mg/kg minzasolmin for approximately 90 days. Animals received treatment up to and including a final injection 1 h prior to euthanasia. All study solutions were blind coded and experimenters were blinded to genotype and treatment group assignments for the duration of the study, ex vivo evaluations (i.e., neuropathology sample processing and imaging, videotape scoring) and through penultimate data analyses (i.e., data quality control with documented exclusions prior to unblinding; unblinding required for a priori pairwise comparisons).
All subjects were euthanized within 1 h of the last treatment and brain and blood were collected. Tissue processing and imaging methods were conducted as described previously[17],[18],[52] and performed under a lab service agreement between UCSD and Neuropore Therapies. All samples were blind coded to genotype and treatment group throughout immune-histological processing and imaging. The right hemibrain was post-fixed in phosphate-buffered 4% paraformaldehyde (pH 7.4) at 4 °C for 48 and then serially sectioned into […] thick […] sections using a vibratome. Sections were free-floated and incubated overnight at 4 °C with primary antibodies. To confirm the specificity of primary antibodies, control experiments were performed in which sections were incubated overnight in the absence of primary antibody, pre-immune serum, or primary antibody pre-adsorbed for 48 h with 20-fold excess of the corresponding peptide. Tissue collection, processing, and imaging methods were conducted as described previously. Briefly, the right hemibrain was post-fixed in phosphate-buffered 4% paraformaldehyde (pH 7.4) at 4 °C for 48 h, and then serially sectioned into 40 µm thick coronal sections using a vibratome. Sections were free-floated and incubated overnight at 4 °C with primary antibodies. To confirm the specificity of primary antibodies, control experiments were performed in which sections were incubated overnight in the absence of primary antibody (data not shown). Immunolabeled sections were imaged with a Zeiss 63× (N.A. 1.4) objective on an Axiovert 35 microscope (Zeiss, Germany). Immunolabeling was evaluated as a corrected optical density across a field of view. […]

[2] = Bioanalysis of compound levels in plasma and brain after long-term treatment; format: in vivo; settings: mouse, ip, Line 61 transgenic mice, 1 h post final dose, mean ± S.E.M.
Procedure: as §2
All subjects were euthanized within 1 h of the last treatment and brain and blood were collected. Tissue processing and imaging methods were conducted as described previously[17],[18],[52] and performed under a lab service agreement between UCSD and Neuropore Therapies. All samples were blind coded to genotype and treatment group throughout immune-histological processing and imaging. The right hemibrain was post-fixed in phosphate-buffered 4% paraformaldehyde (pH 7.4) at 4 °C for 48 and then serially sectioned into […] thick sagittal sections using a vibratome. Sections were free-floated and incubated overnight at 4 °C with primary antibodies. To confirm the specificity of primary antibodies, control experiments were performed in which sections were incubated overnight in the absence of primary antibody, pre-immune serum, or primary antibody pre-adsorbed for 48 h with 20-fold excess of the corresponding peptide. Tissue collection, processing, and imaging methods were conducted as described previously. Briefly, the right hemibrain was post-fixed in phosphate-buffered 4% paraformaldehyde (pH 7.4) at 4 °C for 48 h, and then serially sectioned into 40 µm thick coronal sections using a vibratome. Sections were free-floated and incubated overnight at 4 °C with primary antibodies. To confirm the specificity of primary antibodies, control experiments were performed in which sections were incubated overnight in the absence of primary antibody (data not shown). Immunolabeled sections were imaged with a Zeiss 63× (N.A. 1.4) objective on an Axiovert 35 microscope (Zeiss, Germany). Immunolabeling was evaluated as a corrected optical density across a field of view. Summary tables of statistics for each measure are presented in Supplementary Tables 1–5.
Analysis of minzasolmin by HPLC-MS/MS in plasma and brain homogenate study subject samples was conducted by PRA Health Sciences (Lenexa, KS, USA). Group means were obtained using Graph Pad Prism v. […]

[3] = tested on: Line 61 transgenic mice; test: Tolerability in the 3-month administration study; format: in vivo; settings: 1 or 5 mg/kg i.p. once daily for 3 months; no apparent adverse effects on subject health
Description: as §1, with “[…].” for “Three-month-old male transgenic and age-matched non-transgenic littermate control mice were used and housed up to 5 per cage.”, “0600. […]” for “0600.”

CCCC[C@H](Cc1c[nH]c2ccccc12)NC(=O)c1cnc(N2CCN(C)CC2)s1 [minzasolmin]
change in total ASYN immunolabeling vs vehicle-treated Line 61 transgenic mice ([1]; 1 mg/kg, cortex (P < 0.05)): statistically significant decreases; also recorded: statistically significant reductions | change in total ASYN immunolabeling vs vehicle-treated Line 61 transgenic mice ([1]; 5 mg/kg, cortex): statistically significant decreases; also recorded: statistically significant reductions | effect of dose on total ASYN, 5 mg/kg compared to 1 mg/kg ([1]; cortex (P < 0.05) and hippocampus (P < 0.01), unpaired two tailed t tests): greater reductions | total ASYN immunolabeling, mean ([1]; cortex, 1 mg/kg, corrected optical density, Line 61 tg/Vehicle 352.8, adjusted P 0.0148): 282.1 | total ASYN immunolabeling, mean ([1]; cortex, 5 mg/kg, Line 61 tg/Vehicle 352.8, adjusted P <0.0001): 232.8 | total ASYN immunolabeling, mean ([1]; hippocampus, 1 mg/kg, Line 61 tg/Vehicle 392.9, adjusted P <0.0001): 286.7 | total ASYN immunolabeling, mean ([1]; hippocampus, 5 mg/kg, Line 61 tg/Vehicle 392.9, adjusted P <0.0001): 229.7 | effect of dose on total ASYN, 1 vs. 5 mg/kg ([1]; striatum): no statistically significant effect | total ASYN immunolabeling, mean ([1]; striatum, 1 mg/kg, Line 61 tg/Vehicle 365.3, adjusted P <0.0001): 265.4 | total ASYN immunolabeling, mean ([1]; striatum, 5 mg/kg, Line 61 tg/Vehicle 365.3, adjusted P <0.0001): 245.5 | concentration at 1 h ([2]; brain, 1 mg/kg i.p. daily about 90 days, read-out: [minzasolmin] Brain): 12.1 ± 1.5 ng/g | concentration at 1 h ([2]; brain, 5 mg/kg i.p. daily about 90 days, read-out: [minzasolmin] Brain): 69.5 ± 4.7 ng/g | concentration at 1 h ([2]; plasma, 1 mg/kg i.p. daily about 90 days, read-out: [minzasolmin] Plasma): 72.3 ± 7.9 ng/mL | concentration at 1 h ([2]; plasma, 5 mg/kg i.p. daily about 90 days, read-out: [minzasolmin] Plasma): 357 ± 16.8 ng/mL | tolerability of treatments for the duration of the experiment [3]: well tolerated
